The record followed here is patent US10854312B2, “Selective peptide antagonists” (BIONIZ, LLC, priority 2013, dated 2020).

Holding throughout (format): cell-based
One test relates to human IL-2. Kind of test: CTLL-2 proliferation assay (WST-1), IL-2. The following applies: murine CTLL-2 cells, 1 nM human IL-2, BNZ132-1 50 and 500 nM, WST-1 OD450. As for the experimental part:
(§1) FIG. 6A-FIG. 6E presents inhibitory spectrum of BNZ132-1 over γc- and non-γc-cytokines. […] Neutralizing antibodies against each cytokine (R & D systems, 5 μg ml^−1) were included as controls. After 20 h, the cells were pulsed with WST-1 (Clontech) and OD450 of each well was measured after 6 h. A 19-mer scrambled peptide was used as a negative control at 5 μM. The experiments were conducted in triplicate (applies to all experiments in FIG. 6A-FIG. 6E). The result represents one of at least three independent experiments (applies to all experiments in FIG. 6A-FIG. 6E). […] In PT-18 proliferation assay, PT-18β or PT-18h21Rα cells were withdrawn of mouse IL-3 for 12 h before the experiment. Cells were then incubated with 1 nM of mouse IL-4, mouse IL-9, or mouse IL-21 in the presence or absence of the indicated doses (μM) of BNZ132-1. Neutralizing antibodies to each cytokine (5 μg ml^−1, except for anti-mouse IL-21 polyclonal antibody which was used at 15 μg ml−1) and a scrambled control peptide (5 μM) were included as negative controls. WST-1 assay was conducted as described above. […] In PT-18 h21Rα survival assay, PT-18h21Rα cells are described in the text. […] Both parental and hIL-21Rα positive PT-18 cells were washed and incubated without IL-3 for 12 h before the assay. […] The Y-axis represents the cpm (count per minute) values measured by a β-counter. […]
Background: Tetrazolium assays rely on reduction of a dye to a coloured formazan, in cell work by metabolically active cells.

The next test deals with human IL-2 signal. Description: Western blot of phosphorylation downstream of IL-2 in human PBMC / peripheral T cells. As to the method:
FIG. 9C presents IL-2 signal in human PBMC was blocked by BNZ132-1. Human PBMCs were prepared (Ficoll-paque), activated (by PHA) expanded (by IL-2), and purified by magnetic negative selection as described in the methodology section. After 24 h of IL-2 depletion, the PBMCs were stimulated by 1 nM IL-2 in the presence or absence of BNZ132-1 (0.5 or 0.1 μM) for 20 min before the cellular protein extraction. Phosphorylation of individual proteins was visualized by phosphor-specific antibodies (Cell Signaling), followed by ECL. Lanes: 1. no stimulation, 2. IL-2 stimulation, 3. IL-2+BNZ132-1 (high dose), 4. IL-2+BNZ132-1 (low dose). In all blots, anti-Vinculin antibody (Sigma) was used to validate nearly-equal protein loading.
(In general: Immunoblotting shows a protein as a band on a membrane.)

The subject of the next test is mouse IL-4 signal. Description: Western blot of phosphorylation downstream of IL-4 in PT-18 cells. The following applies: 1 nM mouse IL-4, excess dose of BNZ132-1, 15 min. As for the experimental part:
PT-18 cells32 were fasted of IL-3 for 12 h prior to stimulation. Cells were stimulated with 1 nM mouse IL-4 or mouse IL-9 in the presence or absence of excess dose of BNZ132-1 ([…]) for 15 min and then cellular proteins were extracted. Phosphorylation of the indicated proteins was detected using phosphor-specific antibodies (Cell signaling), followed by ECL. IL-4 is the only γc-cytokine that induces the phosphorylation of STAT6. Note that only IL-4, but not IL-9, induced the tyrosine-phosphorylation of STAT6. […] Lanes: 1. no stimulation, 2. IL-4, 3. IL-4+BNZ132-1, 4. IL-9, 5. IL-9+BNZ132-1

A further test concerns human IL-15. Kind of test: CTLL-2 proliferation assay (WST-1), IL-15. The conditions noted are these: murine CTLL-2 cells, 1 nM human IL-15, BNZ132-1 50 and 500 nM, WST-1 OD450. As to the method:
as §1

Entries after “also recorded” stand apart in the source; their conditions may differ. No end group written: not given here.

As to IKEFLQRFIHIVQSIINTS [BNZ132-1], in the test with human IL-2, the “inhibition of IL-2-induced proliferation of CTLL-2 cells” value is “inhibited IL-2 and IL-15 with an equal efficacy; also recorded: efficiently inhibits; also recorded: inhibition of IL-2 and IL-15”. In the test on human IL-2 signal (human PBMC/peripheral T cells, 1 nM IL-2, BNZ132-1 0.5 or 0.1 μM, 20 min), the “inhibition of IL-2 signal (phosphorylation)” value is on record as “comprehensively inhibited; also recorded: blocked”. For the same sequence, the “differential inhibition of individual signaling pathways at suboptimal dose” value with human IL-2 signal (low dose BNZ132-1 (0.1 μM), IL-2, human peripheral T cells) is “Akt and p38 are more sensitive than Jak3 and STAT5”. Further, the “inhibition of IL-4 signal transduction (phosphorylation, STAT6)” value in the test on mouse IL-4 signal is listed as “does not interfere; also recorded: not inhibited”. In addition, the “inhibition of IL-15-induced proliferation of CTLL-2 cells” value in the test with human IL-15 is “inhibited IL-2 and IL-15 with an equal efficacy; also recorded: efficiently inhibits; also recorded: inhibition of IL-2 and IL-15”.
